Reference: patent US10011615B2, “Heterobicyclo-substituted [1,2,4]triazolo[1,5-c]quinazolin-5-amine compounds with A2A anatagonist properties” (Merck Sharp & Dohme Corp., priority 2012, dated 2018)

target: T1, human A2a receptor (Homo sapiens, UniProt P29274); test: A2a receptor competition binding assay using Scintillation Proximity technology; settings: membranes from HEK293 cells expressing human A2a receptor; 0.5 nM tritiated radioligand; SPA beads; 1 h room temperature
T1 construct: purchased Perkin-Elmer RBHA2AM400UA; host or cells: HEK293 cell membranes
T1 sequence (P29274 whole entry): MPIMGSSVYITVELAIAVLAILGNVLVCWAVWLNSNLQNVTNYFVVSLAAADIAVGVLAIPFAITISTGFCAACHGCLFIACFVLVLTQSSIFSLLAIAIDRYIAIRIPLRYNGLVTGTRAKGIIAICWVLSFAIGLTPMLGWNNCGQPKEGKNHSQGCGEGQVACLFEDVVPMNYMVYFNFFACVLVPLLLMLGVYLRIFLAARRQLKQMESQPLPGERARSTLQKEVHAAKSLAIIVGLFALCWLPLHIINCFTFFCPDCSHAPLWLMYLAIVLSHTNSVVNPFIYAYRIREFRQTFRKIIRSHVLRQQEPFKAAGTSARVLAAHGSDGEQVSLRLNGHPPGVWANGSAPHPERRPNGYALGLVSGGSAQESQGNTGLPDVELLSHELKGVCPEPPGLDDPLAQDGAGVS
Summary of the method: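 Membranes of HEK293 cells expressing human A2a, pretreated with adenosine deaminase, incubated 1 h at room temperature with 0.5 nM tritiated pyrazolotriazolopyrimidine antagonist (final) and compound (3000 to 0.15 nM) on WGA SPA beads in Ca/Mg-free PBS with 10 mM MgCl2. Ki from EC50 via Cheng-Prusoff.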

First: COc1cccc2c1nc(N)n1nc(CCN3CCc4nc(C)oc4C3C)nc21 (stereo not shown) [Ex-236, 2-(2-(2,4-dimethyl-6,7-dihydrooxazolo[5,4-c]pyridin-5(4H)-yl)ethyl)-7-methoxy-[1,2,4]triazolo[1,5-c]quinazolin-5-amine]
Second: COc1cccc2c1nc(N)n1nc(C[C@@H](C)N3CCc4oc(C)nc4C3)nc21 [Ex-214, (R)-7-methoxy-2-(2-(2-methyl-6,7-dihydrooxazolo[4,5-c]pyridin-5(4H)-yl)propyl)-[1,2,4]triazolo[1,5-c]quinazolin-5-amine]
The EC50 of the first is 21-fold lower: 1.4 nM for the first, 29 nM for the second. The first is the more potent here.

Going from `Nc1nc2c(F)cc(F)cc2c2nc(CCN3Cc4cccnc4C3)nn12` [Ex-100] to `COc1cc(F)cc2c1nc(N)n1nc(CCN3Cc4cccnc4C3)nc21` [Ex-98], the EC50 falls from 31.2 nM to 19 nM (1.6-fold). The second is the more potent here.

First: COCc1cccc2c1nc(N)n1nc(CN3Cc4cccnc4C3)nc21 [Ex-198, 2-((5H-Pyrrolo[3,4-b]pyridin-6(7H)-yl)methyl)-7-(methoxymethyl)-[1,2,4]triazolo[1,5-c]quinazolin-5-amine]
Second: CCOc1cccc2c1nc(N)n1nc(CN3Cc4cccnc4C3)nc21 [Ex-203, 2-((5H-pyrrolo[3,4-b]pyridin-6(7H)-yl)methyl)-7-ethoxy-[1,2,4]triazolo[1,5-c]quinazolin-5-amine]
The EC50 of the first is 2.3-fold higher: 207 nM for the first, 88.3 nM for the second. The second is the more potent here.

Compared with `COc1cccc2c1nc(N)n1nc(CCN3CCc4scnc4C3)nc21` [Ex-57, 2-(2-(6,7-dihydrothiazolo[4,5-c]pyridin-5(4H)-yl)ethyl)-7-methoxy-[1,2,4]triazolo[1,5-c]quinazolin-5-amine], `COc1cccc2c1nc(N)n1nc(CCN3CCc4ncsc4C3)nc21` [Ex-56, 2-(2-(6,7-dihydrothiazolo[5,4-c]pyridin-5(4H)-yl)ethyl)-7-methoxy-[1,2,4]triazolo[1,5-c]quinazolin-5-amine] is 2-fold higher in EC50: 1.7 nM for the first, 3.4 nM for the second.

Going from `COc1cccc2c1nc(N)n1nc(CCN3Cc4cccnc4C3)nc21` [Ex-49, 2-(2-(5H-pyrrolo[3,4-b]pyridin-6(7H)-yl)ethyl)-7-methoxy-[1,2,4]triazolo[1,5-c]quinazolin-5-amine] to `COc1cccc2c1nc(N)n1nc(CC(=O)N3Cc4cccnc4C3)nc21` [Ex-77, 2-(5-amino-7-methoxy[1,2,4]triazolo[1,5-c]quinazolin-2-yl)-1-(5,7-dihydro-6H-pyrrolo[3,4-b]pyridin-6-yl)ethanone], the EC50 rises from 5.4 nM to 36.2 nM (6.7-fold).

Compared with `COc1cccc2c1nc(N)n1nc(CN3CCCc4ccc(C)nc43)nc21` [Ex-156], `COc1cccc2c1nc(N)n1nc(CN3CCCCc4ccc(Cl)nc43)nc21` [Ex-160, 2-((2-chloro-7,8-dihydro-5H-pyrido[2,3-b]azepin-9(6H)-yl)methyl)-7-methoxy-[1,2,4]triazolo[1,5-c]quinazolin-5-amine] is 4-fold lower in EC50: 6 nM for the first, 1.5 nM for the second. The second is the more potent here.

Compared with `COc1cccc2c1nc(N)n1nc(CN3CCc4ccc(NC(C)=O)cc4C3)nc21` [Ex-167], `COc1cccc2c1nc(N)n1nc(CN3CCc4ccncc4C3)nc21` [Ex-125, 2-((3,4-dihydro-2,7-naphthyridin-2(1H)-yl)methyl)-7-methoxy-[1,2,4]tri azolo[1,5-c]quinazolin-5-amine] is 3.6-fold higher in EC50: 7.6 nM for the first, 27.3 nM for the second.

`COc1cccc2c1nc(N)n1nc(CN3CCOc4ccccc43)nc21` [Ex-120, 2-((2H-benzo[b][1,4]oxazin-4(3H)-yl)methyl)-7-methoxy-[1,2,4]triazolo[1,5-c]quinazolin-5-amine] and `COc1cccc2c1nc(N)n1nc(CN3CCCc4ccccc43)nc21` [Ex-119, 2-((3,4-dihydroquinolin-1(2H)-yl)methyl)-7-methoxy-[1,2,4]triazolo[1,5-c]quinazolin-5-amine] are within 1.5-fold of each other in EC50: 1.5 nM for the first, 2.1 nM for the second.

First: CCOC(=O)c1nnc2n1CCN(CCc1nc3c4cccc(OC)c4nc(N)n3n1)C2 [Ex-4, ethyl 7-(2-(5-amino-7-methoxy-[1,2,4]triazolo[1,5-c]quinazolin-2-yl)ethyl)-5,6,7,8-tetrahydro-[1,2,4]triazolo[4,3-a]pyrazine-3-carboxylate]
Second: COc1cccc2c1nc(N)n1nc(CCN3CCn4c(nnc4C(=O)NC(C)(C)C)C3)nc21 [Ex-2, 7-(2-(5-amino-7-methoxy-[1,2,4]triazolo[1,5-c]quinazolin-2-yl)ethyl)-N-tert-butyl-5,6,7,8-tetrahydro-[1,2,4]triazolo[4,3-a]pyrazine-3-carboxamide]
The EC50 of the first is 1.6-fold higher: 4.6 nM for the first, 2.9 nM for the second.

`COc1cccc2c1nc(N)n1nc(CCN3Cc4ccc(N5C[C@@H](C)O[C@@H](C)C5)nc4C3)nc21` [Ex-69] and `COc1cccc2c1nc(N)n1nc(CCN3Cc4ccc(N5CCN(CC6CC6)CC5)nc4C3)nc21` [Ex-70] are within 1.5-fold of each other in EC50: 5.2 nM for the first, 6.8 nM for the second.

Going from `COc1cccc2c1nc(N)n1nc(CN3CCc4ccccc4CC3)nc21` [Ex-131, 2-((4,5-dihydro-1H-benzo[d]azepin-3(2H)-yl)methyl)-7-methoxy-[1,2,4]triazolo[1,5-c]quinazolin-5-amine] to `COc1cccc2c1nc(N)n1nc(CN3CCc4cncnc4C3)nc21` [Ex-151, 2-((5,6-dihydropyrido[3,4-d]pyrimidin-7(8H)-yl)methyl)-7-methoxy-[1,2,4]triazolo[1,5-c]quinazolin-5-amine], the EC50 rises from 16 nM to 48.2 nM (3-fold).

`COc1cccc2c1nc(N)n1nc(CCN3Cc4[nH]nc(-c5ccccc5)c4C3)nc21` [Ex-50, 7-methoxy-2-(2-(3-phenylpyrrolo[3,4-c]pyrazol-5(1H,4H,6H)-yl)ethyl)-[1,2,4]triazolo[1,5-c]quinazolin-5-amine] and `COc1cccc2c1nc(N)n1nc(CCN3CCc4sccc4C3)nc21` [Ex-39] are within 1.5-fold of each other in EC50: 1.5 nM for the first, 1.8 nM for the second.

`COc1cccc2c1nc(N)n1nc(CCN3CCn4cc(C(=O)C5CC5)nc4C3)nc21` [Ex-10, (7-(2-(5-amino-7-methoxy[1,2,4]triazolo[1,5-c]quinazolin-2-yl)ethyl)-5,6,7,8-tetrahydroimidazo[1,2-a]pyrazin-2-yl)(cyclopropyl)methanone] and `COc1cccc2c1nc(N)n1nc(CCN3CCn4cc(C(F)(F)F)nc4C3)nc21` [Ex-58, 7-methoxy-2-(2-(2-(trifluoromethyl)-5,6-dihydroimidazo[1,2-a]pyrazin-7(8H)-yl)ethyl)-[1,2,4]triazolo[1,5-c]quinazolin-5-amine] are within 1.5-fold of each other in EC50: 1.2 nM for the first, 0.9 nM for the second.

`COc1cccc2c1nc(N)n1nc(CCN3Cc4ccc(N5CCC(N6CCOCC6)CC5)nc4C3)nc21` [Ex-72] and `COc1cccc2c1nc(N)n1nc(CCN3CCn4c(nnc4SC)C3)nc21` [Ex-1, 7-methoxy-2-(2-(3-(methylthio)-5,6-dihydro-[1,2,4]triazolo[4,3-a]pyrazin-7(8H)-yl)ethyl)-[1,2,4]triazolo[1,5-c]quinazolin-5-amine] are within 1.5-fold of each other in EC50: 5 nM for the first, 4 nM for the second.

First: COc1cccc2c1nc(N)n1nc(CC(N3Cc4cccnc4C3)C(F)(F)F)nc21 (stereo not shown) [Ex-108]
Second: COc1cccc2c1nc(N)n1nc(C[C@@H](C)N3Cc4nc(C)oc4C3)nc21 [Ex-247, (R)-7-methoxy-2-(2-(2-methyl-4H-pyrrolo[3,4-d]oxazol-5(6H)-yl)propyl)-[1,2,4]triazolo[1,5-c]quinazolin-5-amine]
The EC50 of the first is 89-fold higher: 17.9 nM for the first, 0.2 nM for the second. The second is the more potent here.

`COc1cccc2c1nc(N)n1nc(CN3CCn4c(nnc4C(F)(F)F)C3)nc21` [Ex-153, 7-methoxy-2-((3-(trifluoromethyl)-5,6-dihydro[1,2,4]triazolo[4,3-a]pyrazin-7(8H)-yl)methyl)-[1,2,4]triazolo[1,5-c]quinazolin-5-amine] gave an EC50 of 284 nM.
